Measured values reported in US8975417B2, “Pyrazolopyrrolidine derivatives and their use in the treatment of disease” (Novartis AG, priority 2013, dated 2015).

Experiments:
Format in all cases: cell-based
MV-4-11 cells = experiment: Cell growth inhibition assay (CellTiter-Glo), MV-4-11; conditions: Homo sapiens, MV4-11, read-out: MV-4-11 TGI
Method in brief: (§1)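 CTG luminescence (cellular ATP) after compound treatment; values background- and day 0-corrected, vehicle (0.1% DMSO) = 100%, medium only = −100%. Dose range: 3-fold dilutions from 10 μM. IC50/TGI by 4-parameter fit.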

[1] = target: nuclear BRD4-NUT foci in HCC2494 NUT midline carcinoma cells (Homo sapiens (Human), UniProt O60885+Q86Y26); experiment: Nut-foci formation assay; conditions: 24 hours, read-out: HCS Brd4-NUT IC50
Method in brief: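 Read-out is number and intensity of nuclear NUT foci by immunofluorescence imaging, relative to 0.1% DMSO set as 100. Compounds were tested as 3-fold series starting at 10 μM on HCC2494 NUT midline carcinoma cells for 24 h. Four-parameter fitting gave IC50.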

THP-1 cells = experiment: Cell growth inhibition assay (CellTiter-Glo), THP-1; conditions: Homo sapiens, read-out: THP-1 TGI
Method in brief: as §1

Compound	IC50 [1]	IC (total growth inhibition) (MV-4-11 cells)	IC (total growth inhibition) (THP-1 cells)
CCc1nn(C)c2c1C(c1ccc(Cl)cc1)N(c1cc(OC)c3nnc(C)n3c1)C2=O (stereo not drawn) [Example 105, 4-(4-chlorophenol)-3-ethyl-5-(8-methoxy-3-methyl-[1,2,4]triazolo[4,3-a]pyridin-6-yl)-1-methyl-4,5-dihydropyrrolo[3,4-c]pyrazol-6(1H)-one]	98.6 nM	0.164 µM	0.335 µM
Cc1nn(C2CCC2)c2c1C(c1ccc(Cl)cc1)N(c1cc(C)c(=O)n(C)c1)C2=O (stereo not drawn) [Example 94, 4-(4-chlorophenyl)-1-cyclobutyl-5-(1,5-dimethyl-6-oxo-1,6-dihydropyridin-3-yl)-3-methyl-4,5-dihydropyrrolo[3,4-c]pyrazol-6(1H)-one]	21.9 nM	0.0318 µM	0.0765 µM
COc1ncccc1-n1nc(C)c2c1C(=O)N(c1cc(C)c3nnc(C)n3c1)C2c1ccc(Cl)cc1 (stereo not drawn) [Example 101, 4-(4-chlorophenyl)-5-(3,8-dimethyl-[1,2,4]triazolo[4,3-a]pyridin-6-yl)-1-(2-methoxypyridin-3-yl)-3-methyl-4,5-dihydropyrrolo[3,4-c]pyrazol-6(1H)-one]	66.1 nM	0.0447 µM	0.102 µM
Cc1nn(C2CC2)c2c1C(c1cccc(C(F)(F)F)c1)N(c1cc(C)c(=O)n(C)c1)C2=O (stereo not drawn) [Example 96, 1-cyclopropyl-5-(1,5-dimethyl-6-oxo-1,6-dihydropyridin-3-yl)-3-methyl-4-(3-(trifluoromethyl)phenyl)-4,5-dihydropyrrolo[3,4-c]pyrazol-6(1H)-one]	2010 nM	1.24 µM	2.55 µM
COc1ncc(-n2nc3c(c2C)C(c2ccc(Cl)cc2)N(c2cc(Cl)c(=O)n(C)c2)C3=O)c(OC)n1 (stereo not drawn) [Example 55, 5-(5-chloro-1-methyl-6-oxo-1,6-dihydropyridin-3-yl)-4-(4-chlorophenyl)-2-(2,4-dimethoxypyrimidin-5-yl)-3-methyl-4,5-dihydropyrrolo[3,4-c]pyrazol-6(2H)-one]	54.1 nM	0.123 µM	0.364 µM
CCc1nn(C2CC2)c2c1[C@H](c1ccc(Cl)cc1)N(c1cc(C)c3nnc(C)n3c1)C2=O [Example 106, (S)-4-(4-chlorophenyl)-1-cyclopropyl-5-(3,8-dimethyl-[1,2,4]triazolo[4,3-a]pyridin-6-yl)-3-ethyl-4,5-dihydropyrrolo[3,4-c]pyrazol-6(1H)-one]	2240 nM	1.48 µM	4.68 µM
CCc1nn(CCOCC(F)(F)F)c2c1C(c1ccc(Cl)cc1)N(c1cc(OC)c3nnc(C)n3c1)C2=O (stereo not drawn) [Example 108, 4-(4-chlorophenyl)-3-ethyl-5-(8-methoxy-3-methyl-[1,2,4]triazolo[4,3-a]pyridin-6-yl)-1-(2-(2,2,2-trifluoroethoxy)ethyl)-4,5-dihydropyrrolo[3,4-c]pyrazol-6(1H)-one]	635 nM	0.445 µM	0.832 µM
Cc1nn(C2CC2)c2c1C(c1ccc(OC(F)(F)F)cc1)N(c1cc(C)c(=O)n(C)c1)C2=O (stereo not drawn) [Example 95, 1-cyclopropyl-5-(1,5-dimethyl-6-oxo-1,6-dihydropyridin-3-yl)-3-methyl-4-(4-(trifluoromethoxy)phenyl)-4,5-dihydropyrrolo[3,4-c]pyrazol-6(1H)-one]	191 nM	0.27 µM	0.411 µM
COc1ncc(-n2nc(C)c3c2C(=O)N(c2cc(C)c(=O)n(C)c2)[C@@H]3c2ccc(Cl)cc2)c(OC)n1 [Example 100, (R)-4-(4-chlorophenyl)-1-(2,4-dimethoxypyrimidin-5-yl)-5-(1,5-dimethyl-6-oxo-1,6-dihydropyridin-3-yl)-3-methyl-4,5-dihydropyrrolo[3,4-c]pyrazol-6(1H)-one]	42.1 nM	0.0582 µM	0.153 µM
Cc1nn(C(C)C)c2c1[C@@H](c1ccc(Cl)cc1)N(c1cc(C)c(=O)n(C)c1)C2=O [Example 104, (R)-4-(4-chlorophenyl)-5-(1,5-dimethyl-6-oxo-1,6-dihydropyridin-3-yl)-1-isopropyl-3-methyl-4,5-dihydropyrrolo[3,4-c]pyrazol-6(1H)-one]	11.3 nM	0.0191 µM	0.045 µM
CCc1nn(CCO)c2c1C(c1ccc(Cl)cc1)N(c1cc(C)c3onc(C)c3c1)C2=O (stereo not drawn) [Example 79, 4-(4-chlorophenyl)-5-(3,7-dimethylbenzo[d]isoxazol-5-yl)-3-ethyl-1-(2-hydroxyethyl)-4,5-dihydropyrrolo[3,4-c]pyrazol-6(1H)-one]	150 nM	0.42 µM	0.461 µM
Cc1cc(N2C(=O)c3nn(C4CC4)c(C)c3C2c2ccc(Cl)cc2)cn2c(C)nnc12 (stereo not drawn) [Example 93, 4-(4-chlorophenyl)-2-cyclopropyl-5-(3,8-dimethyl-[1,2,4]triazolo[4,3-a]pyridin-6-yl)-3-methyl-4,5-dihydropyrrolo[3,4-c]pyrazol-6(2H)-one]	17.9 nM	0.0226 µM	0.0518 µM

Further lines, with some results ahead:

IC50 [1]	Compound	IC (total growth inhibition) (MV-4-11 cells)	IC (total growth inhibition) (THP-1 cells)
206 nM	CNC(=O)n1nc(C)c2c1C(=O)N(c1cc(C)c(=O)n(C)c1)C2c1ccc(Cl)cc1 (stereo not drawn) [Example 143, 4-(4-chlorophenyl)-5-(1,5-dimethyl-6-oxo-1,6-dihydropyridin-3-yl)-N,3-dimethyl-6-oxo-5,6-dihydropyrrolo[3,4-c]pyrazole-1(4H)-carboxamide]	0.116 µM	0.621 µM
6.42 nM	Cc1nn(C2CC2)c2c1C(c1ccc(Cl)cc1)N(c1cc(C)c3nnn(C)c3n1)C2=O (stereo not drawn) [Example 110, 4-(4-chlorophenyl)-1-cyclopropyl-5-(3,7-dimethyl-3H-[1,2,3]triazolo[4,5-b]pyridin-5-yl)-3-methyl-4,5-dihydropyrrolo[3,4-c]pyrazol-6(1H)-one]	0.0102 µM	0.0198 µM
33.3 nM	Cc1nn(C[C@H](O)C(F)(F)F)c2c1[C@@H](c1ccc(Cl)cc1)N(c1cc(C)c3nnc(C)n3c1)C2=O [Example 167, (R)-4-(4-chlorophenyl)-5-(3,8-dimethyl-[1,2,4]triazolo[4,3-a]pyridin-6-yl)-3-methyl-1-((S)-3,3,3-trifluoro-2-hydroxypropyl)-4,5-dihydropyrrolo[3,4-c]pyrazol-6(1H)-one]	0.0433 µM	0.117 µM
93.4 nM	Cc1nn(C2COC2)c2c1C(c1ccc(Cl)cc1)N(c1cc(C)c(=O)n(C)c1)C2=O (stereo not drawn) [Example 135, 4-(4-chlorophenyl)-5-(1,5-dimethyl-6-oxo-1,6-dihydropyridin-3-yl)-3-methyl-1-(oxetan-3-yl)-4,5-dihydropyrrolo[3,4-c]pyrazol-6(1H)-one]	0.126 µM	0.2 µM
57.7 nM	Cc1nn(C2COC2)c2c1C(c1ccc(Cl)cc1)N(c1cc(C)c3nnc(C)n3c1)C2=O (stereo not drawn) [Example 137, 4-(4-chlorophenyl)-5-(3,8-dimethyl-[1,2,4]triazolo[4,3-a]pyridin-6-yl)-3-methyl-1-(oxetan-3-yl)-4,5-dihydropyrrolo[3,4-c]pyrazol-6(1H)-one]	0.0421 µM	0.116 µM
